This is an account of results in patent US12653860B2, “Compositions and methods for editing beta-globin for treatment of hemaglobinopathies” (Vertex Pharmaceuticals Incorporated, priority 2019, dated 2026).

Strand notation (5' to 3'): a small letter for the sugar, then the base; units joined by * are phosphorothioate-linked, units joined directly phosphodiester-linked; [ ] holds rarer units or linkages, { } end groups; capitals alone tell only the bases. m = 2'-O-methyl; r = 2'-OH (RNA)

One series concerns CD34-expressing LT-HSPCs. Put plainly: Viability of edited LT-HSPCs by Tryphan Blue staining. It counts as cell-based, human. Here is the method:
(§1) Edited cells were evaluated for GFP fluorescence on day 2 post-editing using flow cytometry, and viability was determined via staining with Tryphan Blue.
(§2) Edited cells were evaluated for viability as described above, and for incorporation of gene-edits at 2 days post-electroporation. […] The frequency of INDELs induced at the R02 cut site was also evaluated by NGS analysis.

The subject of series [1] is HBB gene locus in CD34-expressing LT-HSPCs. Put plainly: HDR efficiency at HBB gene with R02 RNP+AAV.307 and DNA-PK inhibitors, NGS. It counts as cell-based, human. The protocol:
(§3) Editing was performed as described above. However, the cells were electroporated with AAV.307 administered 1 hour prior to electroporation at a dose of 10,000 MOI. The cells were electroporated with compound 296 at a concentration ranging from 0.005 μM to 10 μM, with compound 984 at a concentration ranging from 0.005 μM to […], or with 1 μg i53 mRNA. Negative control cells were electroporated with RNP+AAV only or RNP only.
as §2

For series [2] the test system is unchanged. Briefly: INDEL frequency and species at R02 cut site with DNA-PK inhibitors, NGS. It is filed as cell-based, human. The protocol: as §3, §2
The INDELs species identified for cells edited in Experiment 2 were further evaluated to determine frequency of repair by NHEJ or MMEJ repair pathways. An INDEL of 1 nt was considered due to NHEJ repair; a deletion of −9 nt was considered due to MMEJ repair based on the microhomology present on either side of the R02 cut site. Based on percentage of total reads corresponding to these INDEL species, the ratio of gene edits due to NHEJ and MMEJ repair was evaluated.

Series [3] has the same test system. Briefly: HDR insertion of GFP donor at HBB gene locus with DNA-PK inhibitor (percentage of cells expressing GFP). It is filed as cell-based, human. The settings on record: for level of HDR repair (cells expressing GFP): day 2 post-editing, FIG. 37A. The protocol: The effect of DNA-PK inhibition using Compound 296 was compared to the effect of 53BP1 inhibition using i53 for increased HDR repair of the HBB gene locus with donor DNA encoding GFP.
The efficiency of HDR for repair of the HBB gene with donor encoding GFP was determined by measuring the percentage of cells expressing GFP following electroporation.
as §1

For series [4], the target named is DNA-PK catalytic subunit (DNA-PKcs) (Homo sapiens, UniProt P78527). The settings on record: reported, U.S. Pat. No. 9,592,232; cited from earlier work.
Series [5] concerns BFP gene encoded in the AAVS1 locus of HEK293 T cells. Briefly: BFP to GFP reporter assay of HDR repair (flow cytometry). It counts as cell-based. The settings on record: different concentrations or doses; FIG. 1B, 1C. The protocol: An in vitro assay was conducted to determine the ability of various inhibitors and enhancers to improve the efficiency of HDR repair in HEK293 T cells. Specifically, a fluorescent reporter-based screening approach was developed to identify molecules that enhance gene-editing by HDR. A reporter system was generated in HEK293 T cells comprising a genomic AAVS1 locus that encoded either a blue fluorescent protein (BFP) or a green fluorescent protein (GFP) within the AAVS1 locus. A gene encoding BFP can be converted to a gene encoding GFP by substitution of cytosine at position 199 to uridine (e.g., a C to U transition at position 199). By introducing a DSB within the BFP gene using a CRISPR/Cas9 gene-editing system, a homology donor DNA encoding the nucleotide substitution can be used to edit the BFP gene to a GFP gene by HDR repair. Thus, a gene edit that induces a C to U transition at position 199 results in a change in cellular fluorescence. A change in the fluorescence of the cell measured by flow cytometry can be used to quantify efficiency of HDR repair. Additionally, the reverse gene edit can be performed for an AAVS1 locus encoding a GFP gene, wherein a GFP can be converted to BFP by substitution of uridine at position 199 to cytosine.
To create the reporter system, an AAV-based homology donor DNA encoding either BFP or GFP was created. The AAV-BFP or AAV-GFP donor was flanked by homology arms that were 1000 base pairs in length and expression of BFP or GFP was driven by the MND promoter (e.g., a synthetic promoter that contains the U3 region of a modified Moloney murine leukemia virus long term terminal repeat with myeloproliferative sarcoma virus enhancer and deleted negative control region, SEQ ID NO: 58). The viral DNA was packaged into capsids of adeno-associated virus serotype 6 (AAV6) vector. Either the BFP or GFP donor was introduced using the AAV6 vector into the AAVS1 locus in HEK293 T cells by homologous recombination using CRISPR-Cas9 as follows: purified Cas9 protein was complexed with two different single gRNAs (sgRNAs) targeting the AAVS1 locus at SEQ ID NO: 3 (spacer sequence identified by SEQ ID NO: 4; gRNA obtained from Maxcyte) or SEQ ID NO: 5 (spacer sequence identified by SEQ ID NO: 6; gRNA obtained from Thermo Fisher). Cas9 protein used in the Exemplary section provided herein refers to Cas9 polypeptide derived from S pyogenes (SpCas9), unless indicated otherwise.
The Cas9-sgRNA complex was electroporated into the HEK293 T cells using the Lonza Nucleofector program CM-130. Approximately, 2 hours after electroporation, the cells were infected with various viral doses of AAV6 encoding a BFP (SEQ ID NO: 44) or GFP homology donor (SEQ ID NO: 47). One week later, cells were analyzed by flow cytometry to verify integration and expression of BFP or GFP in the AAVS1 locus. HEK293 T cells expressing BFP or GFP were sorted into single cells in 96-well plates. After −2 weeks of growth, DNA extracted from individual cells was analyzed for precise integration of the respective BFP or GFP gene into the AAVS1 locus by long-range PCR. This PCR analysis allowed for determination of whether the BFP/GFP gene was integrated in one or both alleles of the AAVS1 locus.
To introduce a gene edit that converts BFP to GFP, cells were electroporated with ribonucleoprotein (RNP) comprised of Cas9 and sgRNA that targets the BFP gene encoded in the AAVS1 locus. The sgRNA targeted a sequence in the BFP gene identified by SEQ ID NO: 7 (sgRNA spacer sequence identified by SEQ ID NO: 8). The sgRNA were prepared using a standard sgRNA cassette specific to SpCas9, as indicated by SEQ ID NO: 2 (wherein a, c, g, u represent 2′ O-methyl phosphorothioate nucleotides; s represents phosphorothioate nucleotides; and A, C, G, U, N represent canonical RNA nucleotides). The gRNAs used in the Exemplary section provided herein were sgRNAs prepared with the SpCas9 sgRNA cassette unless indicated otherwise. […]
For orientation: Reporter assays use an easily measured gene product as a stand-in for the process of interest.

In series [6] the test system is HBB locus in CD34-expressing LT-HSPCs. Briefly: HDR insertion of AAV GFP donor at HBB locus (GFP fluorescence). It counts as cell-based, human. The note with it: i53 mRNA 0.5, 1, 2 g (FIG. 6A) or 0.3 g, 1 g (FIG. 6B); CYREN1 or CYREN2 mRNA; any dose of XL413 (data not shown). Here is the method: Frozen CD34-expressing LT-HSPCs derived from plerixafor (i.e., Mozibil®)+GCSF-dual mobilized peripheral blood obtained from healthy human donors were purchased from a commercial vendor. LT-HSPCs were maintained in culture media comprised of the reagents shown in Table 4 and were incubated at 37° C., 5% carbon dioxide, 4% oxygen. […] 2×10^5 cells were edited with 3 g Cas9 and 3 g gRNA. The target gene sequence (including target sequence with PAM), R02 spacer sequence, and R02 sgRNA sequence are identified in Table 3.
The cells were transfected with a dsDNA homology donor encoding GFP under a SFFV promoter (SEQ ID NO: 60) that was delivered by AAV (SEQ ID NO: 56). […] The HDR efficiency was determined by measuring the level of GFP fluorescence in the cells following electroporation. To determine the effect of 53BP1 inhibition on HDR efficiency, the 53BP1 inhibitor i53 was introduced as an mRNA-encoded protein to the cells during electroporation with Cas9/gRNA RNP and AAV DNA that serves as a donor for homology directed repair.
The effect of 53BP1 inhibition on HDR efficiency was compared to other mRNA-encoded proteins that inhibit the NHEJ pathway. These included the proteins CYREN1 and CYREN2 that inhibit Ku70/80, a heterodimer that binds DNA blunt ends to prevent processing of 3′ single-stranded DNA tails necessary for HDR repair. Cells were electroporated with RNP, an AAV-GFP homology donor and mRNA encoding either i53 (mRNA ORF shown in SEQ ID NO: 69), CYREN1, or CYREN2.
The effect of treatment with i53 and Nu7441 was compared for improving efficiency of HDR repair of the HBB locus. Cells were treated with different doses of Nu7441 or with mRNA encoding i53 (ORF shown by SEQ ID NO: 69).

The subject of the next series is genomic DNA. Briefly: GUIDE-Seq screen of candidate off-target sites. It is filed as cell-based. The source says: The second approach was to screen candidate off-target sites using GUIDE-Seq (see, e.g., Tsai et al (2015) NAT BIOTECHNOL. 33:187). Based on this approach, 36 sites in the genomic DNA were identified as undergoing off-target CRISPR/Cas9 cleavage using the R02 gRNA.

For the molecule `CNC(=O)c1ccnc2c([C@H](C)CNc3cc(-c4cnc(C)nc4)ncn3)cccc12` [Compound 296], the “viability of edited cells” value in the series with CD34-expressing LT-HSPCs (AAV.307, each concentration used, Experiment 2, FIG. 38C) is over 80%; with CD34-expressing LT-HSPCs (GFP donor, each concentration evaluated (0.014 μM to 10 μM), FIG. 37A), over 80%. Besides, the HDR efficiency in series [1] (3.3 μM, R02 RNP+AAV.307) stood at 80%. Besides, the “HDR efficiency, fold higher than R02 RNP+AAV only” value in series [1] (0.37-10 μM) is “at least 1.6 fold”. In addition, the “level of HDR repair” value in series [1] (0.37-10 M, R02 RNP+AAV.307, FIGS. 38A-38B) is given as at least 70%. Also, the “frequency of INDELs, fold reduced compared to R02 RNP only” value in series [2] (0.37-10 μM) is recorded as “at least 4.6 fold”. The “INDEL species due to MMEJ repair (−9 nt deletion)” value in series [2] (Experiment 2, FIG. 38D) is given as “only a modest reduction”. Moreover, the “fold decrease in INDELs due to NHEJ repair (INDEL of 1 nt)” value in series [2] (Experiment 2, FIG. 38D) is listed as at most 30 fold. In addition, the “level of HDR repair vs i53 mRNA” value in series [3] (1.1 μM, 3.3 μM, or 10 μM, FIG. 37B) is recorded as “comparable to cells edited with i53 mRNA”. The entries for the “level of HDR repair (cells expressing GFP)” value in series [3] (1.1 μM), in series [3] (3.3 μM) and in series [3] (10 μM) were 53.5%, 56.5% and 55.9%, respectively. Besides, the “affinity and selectivity for DNA-PK” value in series [4] was “high affinity and selectivity”.

Regarding `[2H]c1nc(C)nc([2H])c1-c1cc(NC[C@@H](C)c2cccc3c(C(=O)NC)ccnc23)ncn1` [Compound 984], the viability following editing result in the series with CD34-expressing LT-HSPCs (particularly at minimal effective concentrations) is given as “good viability”. This molecule also yielded an HDR efficiency in series [1] (3.3 μM or 10 μM, R02 RNP+AAV.307, FIGS. 39A-39B) of over 80%. The “level of HDR repair” value in series [1] (0.37-10 μM, FIGS. 39A-39B) is on record as “high”. Besides, in series [2] (3.3 μM or 10 μM, FIGS. 39A-39B), the “frequency of INDELs, fold reduced compared to R02 RNP only” value is “approximately 8 fold”. Moreover, in series [4], the “affinity and selectivity for DNA-PK” value is “high affinity and selectivity”.

`CCCCCCNC(=O)Nc1ccc(S(=O)(=O)Nc2ccc(CCNC[C@H](O)COc3ccc(O)cc3)cc2)cc1` [L755,507]: the “HDR efficiency (improvement)” value in series [5] is reported as “no improvement in HDR efficiency”.

`C[C@]1(c2nc3c(C(N)=O)cccc3[nH]2)CCCN1` [Veliparib]: the “HDR efficiency (improvement)” value in series [5] is listed as “no improvement in HDR efficiency”.

As for `Cl.O=c1[nH]c([C@@H]2CCCN2)nc2c1oc1ccc(Cl)cc12` [XL413], the “HDR efficiency vs RNP+AAV-only” value in series [6] is reported as “no improvement in HDR efficiency”.

B1: R02 gRNA: sgRNA targeting the HBB locus, SEQ ID NO: 17 (spacer SEQ ID NO: 16) (nucleic acid)
guide: mC*mU*mU*rGrCrCrCrCrArCrArGrGrGrCrArGrUrArArGrUrUrUrUrArGrArGrCrUrArGrArArArUrArGrCrArArGrUrUrArArArArUrArArGrGrCrUrArGrUrCrCrGrUrUrArUrCrArArCrUrUrGrArArArArArGrUrGrGrCrArCrCrGrArGrUrCrGrGrUrGrCmU*mU*mU*rU
With B1, in the series with genomic DNA, the “number of genomic sites identified as undergoing off-target CRISPR/Cas9 cleavage” value is 36.
